Drawing on PubChem BioAssay (NCI), this text covers TGI and GI50 for 9 compounds.

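Interpolation was linear, between the two tested concentrations surrounding the appropriate level; five concentrations were tested over 48 hours in 96-well plates. At the GI50, growth is halved. Definition used: TGI = concentration required for complete inhibition of growth.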 Some results are limits rather than exact numbers.

Common to all, as to assay: NCI anticancer screen, dose series, 48 h
For experiment [1], the system named is PC-3 prostate.
The subject of experiment [2] is SNB-75 CNS.
The subject of experiment [3] is SF-268 CNS.
Experiment [4] deals with MDA-MB-231 breast.
The subject of experiment [5] is 786-0 renal.
Experiment [6] has as its system OVCAR-8 ovarian.
Experiment [7] deals with SW-620 colon.
Experiment [8] concerns BT-549 breast.
The subject of experiment [9] is HOP-62 NSCLC.
The test system of experiment [10] is A498 renal.
The subject of experiment [11] is M14 melanoma.
For experiment [12], the system named is CAKI-1 renal.
In experiment [13] the test system is OVCAR-4 ovarian.
Experiment [14] deals with UACC-257 melanoma.
Experiment [15] relates to COLO 205 colon.
The subject of experiment [16] is ACHN renal.
For experiment [17], the system named is SR leukemia.
The subject of experiment [18] is MDA-N.

With `O=C(/C=C/c1cccs1)c1ccc(C(=O)/C=C/c2cccs2)cc1`, the TGI in experiment [1], in experiment [2], in experiment [3], in experiment [4], in experiment [5] and in experiment [6] was > 100 µM in each case. Besides, the TGI in experiment [7], in [8], in experiment [9], in experiment [10], in [11] and in experiment [12] was > 100 µM in each case. Further, the TGI in experiment [13], in experiment [14], in [15], in experiment [16] and in [17] was > 100 µM in each case.
Turning to `COc1ccc2c(c1)/C(=C\c1cccc(/C=C3/C(=O)Nc4ccc(OC)cc43)n1)C(=O)N2`, the TGI in experiment [1] is 8.91 µM; in experiment [2] it was > 100 µM; in experiment [3], > 39.9 µM; in [4] it was 4.78 µM; in experiment [5], 2.55 µM; in [6], > 25.4 µM. The TGI in experiment [7] worked out at 7.92 µM; in experiment [8], 6.39 µM; in [9] it was 5.07 µM; in [10] it was 6.03 µM; in experiment [11], 3.22 µM; in experiment [12], 5.62 µM. The TGI in experiment [13] was found to be 3.28 µM; in experiment [14] it was 18.4 µM; in [15], 2.04 µM; in experiment [16], 5.41 µM; in experiment [17] it was 0.452 µM. Also, the values for the GI50 in [4] and in experiment [17] were 0.873 µM and 0.209 µM, respectively.
For `O=C(/C=C\c1ccccc1-c1ccccc1)c1ccccc1`, the TGI in experiment [2], in [3], in [4], in [5], in experiment [18] and in [6] was > 100 µM throughout. Further, the TGI in experiment [7], in experiment [9], in experiment [10], in experiment [11], in experiment [12] and in experiment [13] was > 100 µM throughout. In addition, the TGI in [14], in [15], in [16] and in [17] was > 100 µM throughout.
With `Cc1cc2nc3c(C#N)c(-c4ccccc4)cc(Nc4ccc(F)cc4)n3c2cc1C`, the TGI in [2] was 57.5 µM; in experiment [3] it was 27.9 µM; in experiment [4], 51.1 µM; in experiment [5] it was 22.5 µM; in experiment [6], 25.5 µM; in experiment [7], > 100 µM. Moreover, the TGI in experiment [8] was 56.3 µM; in [9] it was 36.6 µM; in [10], 93.5 µM; in [12], > 100 µM; in experiment [13], > 100 µM; in experiment [14] it was > 100 µM. Besides, the TGI in experiment [15] and in experiment [16] was > 100 µM in each case.
Take `CCCCCCCCCCCCNC1(C)CNCCCNCCNCCCNC1`: the TGI in experiment [2] was determined as 3.15 µM; in experiment [5] it was 3.14 µM; in experiment [6], 2.92 µM; in [7], 3.27 µM; in experiment [9] it was 3.83 µM; in experiment [11], 3.21 µM. For the same compound, the TGI was found to be 3.63 µM in experiment [12]; 3.82 µM in experiment [13]; 3.19 µM in experiment [14]; 3.2 µM in experiment [15]; 3.41 µM in experiment [16]; 3.58 µM in experiment [17].
Consider `COC(=O)N/N=C(\C)C(CN1CCOCC1)C(c1ccccc1)c1cc2ccccc2oc1=O` (stereo unspecified), for which the TGI in experiment [1], in experiment [2], in [3], in experiment [4], in [5] and in [6] was > 100 µM throughout. Further, the TGI in experiment [7], in experiment [8], in [9], in experiment [10], in experiment [11] and in [12] was > 100 µM each time. Further, the TGI was > 100 µM in experiment [13]; > 100 µM in experiment [14]; > 100 µM in experiment [15]; > 100 µM in [16]; 56.5 µM in [17].
As for `Nc1c(Cl)c([N+](=O)[O-])cc2c1OCCCCO2`, the TGI in experiment [1] is > 100 µM; in experiment [2] it was 93 µM; in experiment [3], > 100 µM; in experiment [4] it was > 100 µM; in [5], > 100 µM; in [18], > 100 µM. In addition, the TGI in experiment [6], in [7], in experiment [9], in experiment [11], in experiment [12] and in experiment [13] was > 100 µM each time. Besides, the TGI in experiment [14], in experiment [15], in experiment [16] and in experiment [17] was > 100 µM throughout.
For the compound `Cc1cc(NCC2CC/C(=C\C=C\c3ccccc3)C2=O)no1` (stereo unspecified), the TGI in experiment [1], in experiment [3], in experiment [4], in [5], in experiment [6] and in experiment [7] was > 100 µM each time. Also, the TGI in experiment [8], in experiment [9], in [10], in experiment [11], in experiment [12] and in [13] was > 100 µM throughout. Moreover, the TGI in [14], in experiment [15], in experiment [16] and in experiment [17] was > 100 µM in each case.
Regarding `C/C1=C\CC[C@@]2(C)O[C@@H]2[C@H]2OC(=O)C(C)C2C[C@H]1O` (stereo partly specified), the TGI in [1], in experiment [2], in experiment [3], in [4], in [5] and in experiment [6] was > 100 µM each time. Also, the TGI in experiment [7], in experiment [11], in [12], in experiment [13], in experiment [14] and in experiment [15] was > 100 µM in each case. The TGI in experiment [16] and in experiment [17] was > 100 µM each time.
